In patent US20180172712A1, “METHODS AND MATERIALS FOR ASSESSING HYDROGEN PEROXIDE ACCUMULATION IN CELLS” (Mayo Foundation for Medical Education and Research, priority 2015, published 2018):

Columns and labels:
MM.1S cells [1] = assay: Intracellular ROS by DCFDA flow cytometry; assay type: cell-based, human; conditions: MM.1S cells pretreated with DCFDA 30 minutes; lenalidomide 10 μM vs vehicle
Procedure: Post-treatment reactive oxygen species (ROS) levels were determined using the cell-permeable fluorogenic probe DCFDA (Invitrogen Biosciences). Briefly, million cells per 2 mL (2 million cells in 4 mL medium) were cultured overnight. DCFDA (50 μM) was added to suspended cells and incubated for 30 minutes in the dark. Cells were collected and washed once with phosphate-buffered saline (PBS) and split into 2 FACS tubes. […] Cells were analyzed using a FACSCalibur system (Becton and Dickinson), with excitation and emission spectra set at 488 and 530 nm, respectively. CellQuest software was used to calculate H2O2 production by measuring the increase in mean fluorescence.

Horseradish peroxidase = biological target: T1, Horseradish peroxidase (Armoracia rusticana, UniProt P00433); assay: HRP/Amplex Red in-vitro assay; assay type: biochemical; conditions: 10 μM drug, 5 μM H2O2, 30 minutes
T1 sequence (P00433 31-338 limits assumed): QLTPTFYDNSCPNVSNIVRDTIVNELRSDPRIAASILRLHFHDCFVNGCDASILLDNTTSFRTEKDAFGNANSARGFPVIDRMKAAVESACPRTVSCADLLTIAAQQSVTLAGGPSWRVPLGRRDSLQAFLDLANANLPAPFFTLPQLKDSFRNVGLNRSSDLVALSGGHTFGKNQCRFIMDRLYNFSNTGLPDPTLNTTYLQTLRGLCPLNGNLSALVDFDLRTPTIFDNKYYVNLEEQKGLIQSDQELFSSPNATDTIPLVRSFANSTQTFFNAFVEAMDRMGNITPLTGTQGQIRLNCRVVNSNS
Procedure: (§1) After 30 minutes, plates were read for fluorescence at 530 nm excitation and 590 nm emission with plate reader (Biotek Cytation3). For determining intra-cellular peroxidase activity by Amplex Red, cells were washed and mixed with Amplex Red reagent (50 μM) in HBSS buffer and plated 100,000 cells per well into 96 well plate, four wells for each condition. […] The DMSO control included H2O2 (100 μM). […] After specific time periods, the plates were read for fluorescence intensity using plate reader.

[2] = tested on: intracellular peroxidases in HMCLs; assay: Intra-cellular peroxidase activity by Amplex Red in HMCLs; assay type: cell-based, human; conditions: different myeloma cell lines; thalidomide 20 μM, lenalidomide 20 μM, pomalidomide 10 μM; 40 to 60 minutes
Procedure: as §1

[3] = tested on: OPM2-NT and OPM2-shCRBN cells; assay: MTT assay in OPM2-NT and OPM2-shCRBN cells; assay type: cell-based, human; conditions: OPM2-NT vs OPM2-shCRBN, increasing concentrations, 3 days
Excerpt: (§2) The data were normalized to the DMSO-treated group.

MM.1S cells [4] = assay: MTT assay in MM.1S cells; assay type: cell-based, human; conditions: 3 days
Excerpt: as §2

RPMI-8226 cells = assay: MTT assay in RPMI-8226 cells; assay type: cell-based, human; conditions: RPMI-8226, 3 days
Excerpt: as §2

JJN3 cells = assay: MTT assay in JJN3 cells; assay type: cell-based, human; conditions: JJN3, 3 days
Excerpt: as §2

KMS11 cells = assay: MTT assay in KMS11 cells; assay type: cell-based, human; conditions: KMS11, 3 days
Excerpt: as §2

MM.1Sres cells = assay: MTT assay in MM.1Sres cells; assay type: cell-based, human
Excerpt: as §2

IgL-λ dimers [5] = assay: IgL dimerization immunoblot under nonreducing conditions in MM.1S cells; assay type: cell-based, human; conditions: 3 hours, lenalidomide 10 μM or H2O2 25 μM
Excerpt: (§3) Proteins were transferred to polyvinylidene fluoride membranes (Bio-Rad).

IgL-λ dimers [6] = assay: IgL dimerization immunoblot in MM.1S and MM.1Sres cells; assay type: cell-based, human; conditions: MM.1S and MM.1Sres treated for 3 days
Excerpt: as §3

IgL-λ = IgL-λ secretion and intracellular level (immunoblot, ELISA) in OPM2-NT and OPM2-shCRBN cells; assay type: cell-based, human
Excerpt: as §3

IgL-λ mRNA = assay: Real-time PCR for IgL-λ mRNA; assay type: cell-based, human; conditions: FIG. 8B; 10, 30, or 50 μM, 72 hours
Procedure: (§4) Total RNA from HMCLs treated with lenalidomide was isolated using the Qiagen RNeasy mini kit. RNA (1 μg) was used for cDNA synthesis using iScript Reverse Transcription Supermix (Bio-Rad). Real-time polymerase chain reaction (PCR) was performed using the SYBR green method. The following primers were used for amplification: […]
(§5) The fold change of the mRNA expression was calculated from the difference between treated and untreated cells, after normalizing to an endogenous control (β-actin). Primers encompassing the spliced sequences in XBP1 mRNA were used for PCR amplification, and products were separated by electrophoresis through a 2.5% agarose gel and visualized by ethidium bromide staining. All reactions were conducted in triplicate.

[7] = tested on: ER stress markers in OPM2-NT and OPM2-shCRBN cells; assay: ER stress immunoblot in OPM2-NT and OPM2-shCRBN cells; assay type: cell-based, human
Excerpt: as §3

XBP-1 mRNA = XBP-1 mRNA splicing by PCR; assay type: cell-based, human; conditions: lenalidomide 10 μM, 3 days
Procedure: as §4, §5

Bip = Bip immunoblot in other isogenic HMCLs (MM.1S/MM.1Sres, KMS18-NT/KMS18-shCRBN); assay type: cell-based, human; conditions: CRBN-positive vs CRBN-negative cells, 3 days
Excerpt: as §3

- decomposition of H2O2 by horseradish peroxidase (Amplex Red to resorufin) (Horseradish peroxidase): inhibited
- intracellular H2O2 decomposition mediated by peroxidases [2]: inhibit intracellular H2O2 decomposition
Structure (SMILES): Nc1cccc2c1CN(C1CCC(=O)NC1=O)C2=O (stereo not drawn) [lenalidomide]
- intracellular H2O2 (DCF fluorescence by FACS) (MM.1S cells [1]): increasing intracellular H2O2
- CRBN dependence of cytotoxicity (MTT) [3]: CRBN dependent
- sensitivity of cell line (MTT) (MM.1S cells [4]): hypersensitive
- sensitivity of cell line (MTT) (RPMI-8226 cells): resistant
- sensitivity of cell line (MTT) (JJN3 cells): resistant
- sensitivity of cell line (MTT) (KMS11 cells): sensitive
- sensitivity of cell line (MTT) (MM.1Sres cells): resistant
- formation of IgL-λ dimers (IgL-λ dimers [5]): increased formation of IgL-λ dimers
- IgL-λ dimers (IgL-λ dimers [6]): IgL-λ dimers were observed only in MM.1S
- total intracellular IgL protein (IgL-λ; FIG. 8C, 72 hours): increased total intracellular IgL protein
- secretion of IgG-λ / IgL-λ (IgL-λ; FIG. 8D-E): decreased secretion
- IgL-λ mRNA expression (IgL-λ mRNA): unchanged
- ER stress response ([7]; 3 days, increasing concentrations (10, 30, or 50 μM)): an ER stress response occurred in OPM2-NT cells, but not in CRBN-knockdown cells
- GRP78/BiP protein ([7]; CRBN-positive cells, 3 days): accumulated
- IRE1α protein level ([7]; CRBN-positive cells, 3 days): markedly decreased
- p53 protein levels ([7]; CRBN-positive cells, 3 days): decreased
- p53 and PARP levels ([7]; CRBN-positive lenalidomide-sensitive cells, 6 days): complete degradation of p53 and PARP proteins
- mRNA splicing of XBP-1 (XBP-1 mRNA): more evident in OPM2-NT cells than CRBN-knockdown cells
- Bip protein (Bip): accumulation of Bip protein in CRBN-positive cells, but not in CRBN-negative cells
